This assay concerns the target HDM2 (residues 17 to 125) (Homo sapiens (Human), UniProt Q00987). Description: HDM2 FRET assay (inhibition of p53 peptide binding to HDM2). Conditions: read-out: FRET IC50; 0.5 nM HDM2, 3 nM FITC peptide, two hour incubation; values rounded to the nearest integer.

For one compound, IC50 results are on record in US8962611B2, “Substituted imidazopyridines as HDM2 inhibitors” (Merck Sharp & Dohme Corp., priority 2012, dated 2015).

HDM2 (residues 17 to 125), sequence (Q00987 17-125): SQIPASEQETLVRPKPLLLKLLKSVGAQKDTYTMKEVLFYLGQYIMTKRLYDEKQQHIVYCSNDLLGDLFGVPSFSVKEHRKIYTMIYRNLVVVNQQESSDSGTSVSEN
Excerpt: Methods: An HDM2 FRET assay was developed to assess the compounds' inhibitory activity towards binding of p53 protein. […] Ratio of em520/em495 was used to calculate % inhibition and to obtain IC50 with 4-parameter logistic equation.
Concentration of compound was plotted against em520/Cem495 ratio signal. To generate IC50 values, the dose-response curves were fitted to a standard sigmoidal curve and IC50 values were derived by nonlinear regression analysis.

On to `C[C@H]1CC[C@H](Cn2c(N3CCC[C@H]3c3nccs3)nc3cc(-c4noc(=O)[nH]4)nc(-c4cncc(Cl)c4)c32)CC1` [Example 3.81, 3-{4-(5-chloropyridin-3-yl)-3-[(trans-4-methylcyclohexyl)methyl]-2-[(2S)-2-(1,3-thiazol-2-yl)pyrrolidin-1-yl]-3H-imidazo[4,5-c]pyridin-6-yl}-1,2,4-oxadiazol-5(4H)-one], for which the IC50 is less than 1 nM.

Broadly, the IC50 is the concentration that inhibits the measured activity by half.
